This is an account of results in patent US12466822B2, “Heterocyclic compounds as immunomodulators” (Incyte Corporation, priority 2016, dated 2025).

T1 sequence (Q9NZQ7 19-238): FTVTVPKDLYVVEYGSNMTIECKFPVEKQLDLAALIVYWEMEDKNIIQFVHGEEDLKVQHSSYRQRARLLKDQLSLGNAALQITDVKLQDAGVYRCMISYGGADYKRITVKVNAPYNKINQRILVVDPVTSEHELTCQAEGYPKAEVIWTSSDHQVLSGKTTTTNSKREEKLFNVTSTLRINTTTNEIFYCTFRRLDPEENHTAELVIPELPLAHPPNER

The assay addresses T1, PD-1/PD-L1 protein/protein interaction (recombinant human PD-L1 protein (19-238), recombinant human PD-1 protein (25-167)) (Homo sapiens, UniProt Q9NZQ7).
T1 construct: Recombinant human PD-L1 protein (19-238) with a His-tag at the C-terminus; purchased AcroBiosystems PD1-H5229 (PD-L1-His); PD1-H5257 (PD-1-Fc)
As to the kind of experiment: PD-1/PD-L1 Homogeneous Time-Resolved Fluorescence (HTRF) Binding Assay. Particulars: 25° C., PBS buffer (pH 7.4), 40 minutes preincubation with inhibitors. The method, then: The assays were conducted in a standard black 384-well polystyrene plate with a final volume of 20 μL. Inhibitors were first serially diluted in DMSO and then added to the plate wells before the addition of other reaction components. The final concentration of DMSO in the assay was 1%. The assays were carried out at 25° C. in the PBS buffer (pH 7.4) with 0.05% Tween-20 and 0.1% BSA. Recombinant human PD-L1 protein (19-238) with a His-tag at the C-terminus was purchased from AcroBiosystems (PD1-H5229). Recombinant human PD-1 protein (25-167) with Fc tag at the C-terminus was also purchased from AcroBiosystems (PD1-H5257). PD-L1 and PD-1 proteins were diluted in the assay buffer and 10 μL was added to the plate well. Plates were centrifuged and proteins were preincubated with inhibitors for 40 minutes. The incubation was followed by the addition of 10 μL of HTRF detection buffer supplemented with Europium cryptate-labeled anti-human IgG (PerkinElmer-AD0212) specific for Fc and anti-His antibody conjugated to SureLight®-Allophycocyanin (APC, PerkinElmer-AD0059H). After centrifugation, the plate was incubated at 25° C. for 60 min. before reading on a PHERAstar FS plate reader (665 nm/620 nm ratio). Final concentrations in the assay were […], 10 nM PD-L1, 1 nM europium anti-human IgG and 20 nM anti-His-Allophycocyanin. IC50 determination was performed by fitting the curve of percent control activity versus the log of the inhibitor concentration using the GraphPad Prism 5.0 software.
(In general: TR-FRET usually uses a lanthanide donor and a delayed reading to cut background.)
For orientation: IC50 means the midpoint of a concentration-inhibition curve. `Cc1c(Nc2nccc3cc(CN4CC[C@H](O)C4)cnc23)cccc1-c1cccc(NC(=O)c2nc3c(n2C)CCN(C)C3)c1Cl` [Example 32, (S)—N-(2-chloro-3′-(3-((3-hydroxypyrrolidin-1-yl)methyl)-1,7-naphthyridin-8-ylamino)-2′-methylbiphenyl-3-yl)-1,5-dimethyl-4,5,6,7-tetrahydro-1H-imidazo[4,5-c]pyridine-2-carboxamide]: the IC50 is not above 10 nM.
Take `Cc1c(Nc2nccc3cc(CN4CC[C@@](C)(C(=O)O)C4)cnc23)cccc1-c1cccc(NC(=O)c2nc3c(n2C)CCN(C)C3)c1Cl` [Example 33, (R)-1-((8-(2′-chloro-3′-(1,5-dimethyl-4,5,6,7-tetrahydro-1H-imidazo[4,5-c]pyridine-2-carboxamido)-2-methylbiphenyl-3-ylamino)-1,7-naphthyridin-3-yl)methyl)-3-methylpyrrolidine-3-carboxylic acid]: the IC50 is not above 10 nM.
As for `Cc1c(Nc2nccc3cc(CN4CC[C@@H](C(=O)O)C4)cnc23)cccc1-c1cccc(-c2nc3c(s2)CNCC3)c1C` [Example 34, (R)-1-((8-((2,2′-dimethyl-3′-(4,5,6,7-tetrahydrothiazolo[5,4-c]pyridin-2-yl)-[1,1′-biphenyl]-3-yl)amino)-1,7-naphthyridin-3-yl)methyl)pyrrolidine-3-carboxylic acid], the figure is not above 10 nM.
Turning to `Cc1c(Nc2nccc3cc(CN4CC[C@@H](O)C4)cnc23)cccc1-c1cccc(-c2nc3c(s2)CNCC3)c1C` [Example 35, (R)-1-((8-((2,2′-dimethyl-3′-(4,5,6,7-tetrahydrothiazolo[5,4-c]pyridin-2-yl)-[1,1′-biphenyl]-3-yl)amino)-1,7-naphthyridin-3-yl)methyl)pyrrolidin-3-ol], the IC50 is not above 10 nM.
For the compound `Cc1c(Nc2nccc3cc(CN4CC[C@H](O)C4)cnc23)cccc1-c1cccc(-c2nc3c(s2)CNCC3)c1C` [Example 36, (S)-1-((8-((2,2′-dimethyl-3′-(4,5,6,7-tetrahydrothiazolo[5,4-c]pyridin-2-yl)-[1,1′-biphenyl]-3-yl)amino)-1,7-naphthyridin-3-yl)methyl)pyrrolidin-3-ol], the IC50 was not above 10 nM.
As for `Cc1c(Nc2nccc3cc(CN4CC[C@@H](O)C4)cnc23)cccc1-c1cccc(-c2nc3c(o2)CN(C(=O)CN(C)C)C3)c1C` [Example 37, (R)-2-(dimethylamino)-1-(2-(3′-((3-((3-hydroxypyrrolidin-1-yl)methyl)-1,7-naphthyridin-8-yl)amino)-2,2′-dimethyl-[1,1′-biphenyl]-3-yl)-4,6-dihydro-5H-pyrrolo[3,4-d]oxazol-5-yl)ethan-1-one], the figure is not above 10 nM; as for `Cc1c(Nc2nccc3cc(CN4CC[C@H](O)C4)cnc23)cccc1-c1cccc(-c2nc3c(o2)CN(C(=O)CN(C)C)C3)c1C` [Example 38, (S)-2-(dimethylamino)-1-(2-(3′-((3-((3-hydroxypyrrolidin-1-yl)methyl)-1,7-naphthyridin-8-yl)amino)-2,2′-dimethyl-[1,1′-biphenyl]-3-yl)-4,6-dihydro-5H-pyrrolo[3,4-d]oxazol-5-yl)ethan-1-one], not above 10 nM.
As for `Cc1c(Nc2nccc3cc(CN4CC[C@@H](O)C4)cnc23)cccc1-c1cccc(-c2nc3c(o2)CN(C(=O)CN2CC(C(=O)O)C2)C3)c1C` [Example 39, (R)-1-(2-(2-(3′-((3-((3-hydroxypyrrolidin-1-yl)methyl)-1,7-naphthyridin-8-yl)amino)-2,2′-dimethyl-[1,1′-biphenyl]-3-yl)-4,6-dihydro-5H-pyrrolo[3,4-d]oxazol-5-yl)-2-oxoethyl)azetidine-3-carboxylic acid], the IC50 is not above 10 nM.
As for `Cc1c(Nc2nccc3cc(CN4CC[C@@H](O)C4)cnc23)cccc1-c1cccc(-c2nc3c(o2)CN(C(=O)CN2CC[C@H](C(=O)O)C2)C3)c1C` [Example 40, (S)-1-(2-(2-(3′-((3-(((R)-3-hydroxypyrrolidin-1-yl)methyl)-1,7-naphthyridin-8-yl)amino)-2,2′-dimethyl-[1,1′-biphenyl]-3-yl)-4,6-dihydro-5H-pyrrolo[3,4-d]oxazol-5-yl)-2-oxoethyl)pyrrolidine-3-carboxylic acid], the figure is not above 10 nM.
In the case of `Cc1c(Nc2nccc3cc(CN4CC[C@@H](O)C4)cnc23)cccc1-c1cccc(-c2nc3c(o2)CN(C(=O)CN2CC[C@@H](C(=O)O)C2)C3)c1C` [Example 41, (R)-1-(2-(2-(3′-((3-(((R)-3-hydroxypyrrolidin-1-yl)methyl)-1,7-naphthyridin-8-yl)amino)-2,2′-dimethyl-[1,1′-biphenyl]-3-yl)-4,6-dihydro-5H-pyrrolo[3,4-d]oxazol-5-yl)-2-oxoethyl)pyrrolidine-3-carboxylic acid], the IC50 is not above 10 nM.
Turning to `Cc1c(Nc2nccc3cc(CN4CC[C@@H](O)C4)cnc23)cccc1-c1cccc(-c2nc3c(o2)CN(C(=O)CN2CCCC[C@H]2C(=O)O)C3)c1C` [Example 42, (S)-1-(2-(2-(3′-((3-(((R)-3-hydroxypyrrolidin-1-yl)methyl)-1,7-naphthyridin-8-yl)amino)-2,2′-dimethyl-[1,1′-biphenyl]-3-yl)-4,6-dihydro-5H-pyrrolo[3,4-d]oxazol-5-yl)-2-oxoethyl)piperidine-2-carboxylic acid], the IC50 was not above 10 nM.
With `Cc1c(COc2cc(OCc3cncc(C#N)c3)c(CN3CCCC[C@H]3C(=O)O)cc2Cl)cccc1-c1cccc(Nc2nccc3cc(CN4CC[C@@H](O)C4)cnc23)c1C` [Example 43, (S)-1-(5-chloro-2-((5-cyanopyridin-3-yl)methoxy)-4-((3′-((3-(((R)-3-hydroxypyrrolidin-1-yl)methyl)-1,7-naphthyridin-8-yl)amino)-2,2′-dimethyl-[1,1′-biphenyl]-3-yl)methoxy)benzyl)piperidine-2-carboxylic acid] the figure was not above 10 nM.
For `Cc1c(COc2cc(OCc3cncc(C#N)c3)c(CN3CC[C@@H](C(=O)O)C3)cc2Cl)cccc1-c1cccc(Nc2nccc3cc(CN4CC[C@@H](O)C4)cnc23)c1C` [Example 44, (R)-1-(5-chloro-2-((5-cyanopyridin-3-yl)methoxy)-4-((3′-((3-(((R)-3-hydroxypyrrolidin-1-yl)methyl)-1,7-naphthyridin-8-yl)amino)-2,2′-dimethyl-[1,1′-biphenyl]-3-yl)methoxy)benzyl)pyrrolidine-3-carboxylic acid], the half-maximal inhibitory concentration (IC50) is not above 10 nM.
On to `Cc1c(Nc2nccc3cc(CN4CC[C@@](C)(C(=O)O)C4)cnc23)cccc1-c1cccc(NC(=O)c2nc3c(n2C)CCNC3)c1Cl` [Example 45, (R)-1-((8-(2′-Chloro-2-methyl-3′-(1-methyl-4,5,6,7-tetrahydro-1H-imidazo[4,5-c]pyridine-2-carboxamido)biphenyl-3-ylamino)-1,7-naphthyridin-3-yl)methyl)-3-methylpyrrolidine-3-carboxylic acid], for which the IC50 was not above 10 nM.
In the case of `Cc1c(NC(=O)c2nc3c(n2C)CCN(C)C3)cccc1-c1cccc(Nc2nccc3cc(CN4CC[C@@H](C(=O)O)C4)cnc23)c1C` [Example 46, (R)-1-((8-(3′-(1,5-dimethyl-4,5,6,7-tetrahydro-1H-imidazo[4,5-c]pyridine-2-carboxamido)-2,2′-dimethylbiphenyl-3-ylamino)-1,7-naphthyridin-3-yl)methyl)pyrrolidine-3-carboxylic acid], the IC50 is not above 10 nM.
